Results: US12391679B2, “Benzamide-substituted bicyclic imidazo- and pyrazolo-fused -pyridine, -pyrimide, and -pyridazine compounds for treatment of inflammatory diseases” (ONCO3R Therapeutics BV, priority 2019, dated 2025)

Assays:
Assay type in all cases: biochemical
SIK2 = molecular target: T1, SIK2 (Homo sapiens, UniProt Q9H0K1); test: ADP-Glo kinase assay, SIK2
T1 construct: purchased ThermoFisher Scientific PV4792
Experimental: (§1) The ADP-Glo™ kinase assay is a luminescent technology assay which measures the ADP formed from a kinase reaction. […] In a second step the kinase reactions are terminated and all the remaining ATP is depleted. In a final step the ADP is converted into ATP and this newly synthesized ATP is measured by using a luciferase/luciferin reaction. The generated light is measured using an Envision plate reader, wherein the luminescent signal obtained positively correlates with the kinase activity.
(§2) 1% DMSO and 10 μM staurosporine final concentrations are used as negative and positive controls.
(§3) 2 μL enzyme-substrate mixture is added to the assay plates.
(§4) The reaction is started by adding 2 μL diluted ATP on the assay plates. Plates are centrifuged for a few seconds at 1000 rpm and gently shaken for […] followed by an incubation at RT for 120 min.
(§5) The reactions are stopped and the unconsumed ATP is depleted by adding 5 μL ADP-Glo Reagent (Promega, Cat #V9120) to the reaction. The plates are centrifuged for a few seconds at 1000 rpm and incubated at RT for 40 min (ATP depletion).
(§6) The ADP is converted to ATP and luciferase and luciferin is introduced to detect ATP by adding 10 μL Kinase Detection Reagent (Promega, Cat #V913B+V914r) to the reaction. The plates are centrifuged for a few seconds at 1000 rpm and incubated at RT for 30 min (ADP detection).
(§7) Luminescence is measured on an Envision plate reader (PerkinElmer Inc.).

SIK1 = molecular target: T2, SIK1 (Homo sapiens, UniProt P57059); test: ADP-Glo kinase assay, SIK1
T2 construct: purchased Carna Biosciences 02-131
Experimental: as §1, §2, §3, §4, §5, §6, §7

SIK3 = molecular target: T3, SIK3 (Homo sapiens, UniProt Q9Y2K2); test: ADP-Glo kinase assay, SIK3
T3 construct: purchased SignalChem S12-11G-100
Experimental: as §1, §2, §3, §4, §5, §6, §7

T1 sequence (Q9H0K1 whole entry): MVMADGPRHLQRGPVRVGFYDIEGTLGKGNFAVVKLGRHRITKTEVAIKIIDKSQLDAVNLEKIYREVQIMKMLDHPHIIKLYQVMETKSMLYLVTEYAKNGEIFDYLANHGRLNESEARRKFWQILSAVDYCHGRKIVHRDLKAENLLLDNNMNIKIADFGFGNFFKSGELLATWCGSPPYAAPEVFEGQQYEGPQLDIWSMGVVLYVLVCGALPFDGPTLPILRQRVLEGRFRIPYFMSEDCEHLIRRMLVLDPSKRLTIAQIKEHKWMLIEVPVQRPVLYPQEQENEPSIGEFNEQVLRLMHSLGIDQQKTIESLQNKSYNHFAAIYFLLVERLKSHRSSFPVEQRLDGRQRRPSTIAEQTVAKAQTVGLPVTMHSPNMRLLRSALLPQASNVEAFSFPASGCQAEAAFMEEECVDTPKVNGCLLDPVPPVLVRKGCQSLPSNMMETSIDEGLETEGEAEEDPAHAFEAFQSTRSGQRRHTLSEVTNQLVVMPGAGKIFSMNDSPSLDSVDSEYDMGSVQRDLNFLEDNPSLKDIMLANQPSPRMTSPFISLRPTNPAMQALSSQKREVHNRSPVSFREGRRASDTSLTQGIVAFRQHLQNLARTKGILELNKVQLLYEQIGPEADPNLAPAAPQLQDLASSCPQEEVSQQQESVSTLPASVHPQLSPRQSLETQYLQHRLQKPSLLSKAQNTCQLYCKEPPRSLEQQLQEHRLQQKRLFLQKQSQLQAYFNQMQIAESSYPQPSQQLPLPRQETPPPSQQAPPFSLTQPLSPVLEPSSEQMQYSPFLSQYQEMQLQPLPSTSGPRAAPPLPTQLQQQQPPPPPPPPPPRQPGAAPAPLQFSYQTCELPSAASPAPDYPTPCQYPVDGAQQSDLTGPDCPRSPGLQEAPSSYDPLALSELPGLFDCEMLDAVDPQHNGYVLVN
T3 sequence (Q9Y2K2 59-365 limits assumed): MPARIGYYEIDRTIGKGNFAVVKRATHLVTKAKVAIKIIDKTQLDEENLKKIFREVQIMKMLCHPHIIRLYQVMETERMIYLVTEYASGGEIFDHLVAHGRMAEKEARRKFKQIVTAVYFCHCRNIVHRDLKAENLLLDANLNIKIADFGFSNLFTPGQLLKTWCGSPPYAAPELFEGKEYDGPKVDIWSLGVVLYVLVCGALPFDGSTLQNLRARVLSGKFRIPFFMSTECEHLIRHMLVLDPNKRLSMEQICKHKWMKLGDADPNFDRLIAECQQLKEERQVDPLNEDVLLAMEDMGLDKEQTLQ
T2 sequence (P57059 whole entry): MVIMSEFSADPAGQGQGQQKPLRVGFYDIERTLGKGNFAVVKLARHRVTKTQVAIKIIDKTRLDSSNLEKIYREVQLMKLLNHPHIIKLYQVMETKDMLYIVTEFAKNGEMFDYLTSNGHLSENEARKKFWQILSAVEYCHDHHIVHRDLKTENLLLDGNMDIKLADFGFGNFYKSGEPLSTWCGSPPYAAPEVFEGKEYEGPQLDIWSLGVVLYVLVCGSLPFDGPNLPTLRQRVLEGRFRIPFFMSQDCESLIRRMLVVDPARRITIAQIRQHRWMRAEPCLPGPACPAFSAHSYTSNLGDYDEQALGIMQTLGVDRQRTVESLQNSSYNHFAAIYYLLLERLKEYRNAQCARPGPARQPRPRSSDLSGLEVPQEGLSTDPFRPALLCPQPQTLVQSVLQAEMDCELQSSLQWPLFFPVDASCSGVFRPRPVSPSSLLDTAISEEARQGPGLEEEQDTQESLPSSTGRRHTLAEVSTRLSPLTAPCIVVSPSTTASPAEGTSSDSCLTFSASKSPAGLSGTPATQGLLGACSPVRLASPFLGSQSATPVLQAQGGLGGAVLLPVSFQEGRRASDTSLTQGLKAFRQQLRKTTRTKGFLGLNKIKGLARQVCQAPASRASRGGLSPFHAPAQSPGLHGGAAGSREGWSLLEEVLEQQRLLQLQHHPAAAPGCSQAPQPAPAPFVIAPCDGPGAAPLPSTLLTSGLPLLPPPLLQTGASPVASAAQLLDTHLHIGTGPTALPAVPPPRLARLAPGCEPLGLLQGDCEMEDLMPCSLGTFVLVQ

Row | Compound | IC50 (SIK2) [nM] | IC50 (SIK1) [nM] | IC50 (SIK3) [nM]
1 | COc1cc(-c2cnc3cc(C(C)(C)C#N)ccn23)cc(OC(F)F)c1C(=O)N1CCN(C)CC1 [Cpd 49, 2-[3-[3-(difluoromethoxy)-5-methoxy-4-(4-methylpiperazine-1-carbonyl)phenyl]imidazo[1,2-a]pyridin-7-yl]-2-methyl-propanenitrile] | > 500 | > 500 | > 500
2 | COc1cc(-c2cnn3cc(C(C)(C)S(C)(=O)=O)ccc23)cc(OC(F)F)c1C(=O)N[C@@H]1C[C@@H]1F [Cpd 246, 2-(difluoromethoxy)-N-[(1R,2S)-2-fluorocyclopropyl]-6-methoxy-4-[6-(1-methyl-1-methylsulfonyl-ethyl)pyrazolo[1,5-a]pyridin-3-yl]benzamide] | > 500 | > 500 | 10 to 100
3 | C=CCC(C#N)(CC=C)c1ccn2c(-c3cc(OC)c(C(=O)NC4CC4)c(OC(F)F)c3)cnc2c1 [Cpd 36, 4-[7-(1-allyl-1-cyano-but-3-enyl)imidazo[1,2-a]pyridin-3-yl]-N-cyclopropyl-2-(difluoromethoxy)-6-methoxy-benzamide] | > 500 | > 500 | 10 to 100
4 | COc1cc(-c2cnc3cc(C(C)(C)C#N)ccn23)cc(OC(F)F)c1C(=O)N1CC(C(F)(F)F)C1 [Cpd 76, 2-[3-[3-(difluoromethoxy)-5-methoxy-4-[3-(trifluoromethyl)azetidine-1-carbonyl]phenyl]imidazo[1,2-a]pyridin-7-yl]-2-methyl-propanenitrile] | 100 to 500 | > 500 | 0.01 to 10
5 | COc1cc(-c2cnc3cc(C4(C(=O)O)CC4)ccn23)cc(OC(F)F)c1C(=O)NC1CC1 [Cpd 114, 1-[3-[4-(cyclopropylcarbamoyl)-3-(difluoromethoxy)-5-methoxy-phenyl]imidazo[1,2-a]pyridin-7-yl]cyclopropanecarboxylic acid] | > 500 | > 500 | 10 to 100
6 | COc1cc(-c2cnc3cc(C4(C#N)CNC4)ccn23)cc(OC(F)F)c1C(=O)NC1CC1 [Cpd 110, 4-[7-(3-cyanoazetidin-3-yl)imidazo[1,2-a]pyridin-3-yl]-N-cyclopropyl-2-(difluoromethoxy)-6-methoxy-benzamide] | > 500 | > 500 | 10 to 100
7 | COc1cc(-c2cnc3cc(C4(C#N)CN(C(C)=O)C4)ccn23)cc(OC(F)F)c1C(=O)NC1CC1 [Cpd 122, 4-[7-(1-acetyl-3-cyano-azetidin-3-yl)imidazo[1,2-a]pyridin-3-yl]-N-cyclopropyl-2-(difluoromethoxy)-6-methoxy-benzamide] | > 500 | > 500 | 10 to 100
8 | CCN(CC)CC(C)(C)c1ccc2c(-c3cc(OC)c(C(=O)N[C@@H]4C[C@@H]4F)c(OC(F)F)c3)cnn2c1 [Cpd 276, 4-[6-[2-(diethylamino)-1,1-dimethyl-ethyl]pyrazolo[1,5-a]pyridin-3-yl]-2-(difluoromethoxy)-N-[(1R,2S)-2-fluorocyclopropyl]-6-methoxy-benzamide] | > 500 | > 500 | 10 to 100
9 | COc1cc(-c2cnn3cc(C4(NCC(F)F)CCC4)ccc23)cc(OC(F)F)c1C(=O)N[C@@H]1C[C@@H]1F [Cpd 271, 4-[6-[1-(2,2-difluoroethylamino)cyclobutyl]pyrazolo[1,5-a]pyridin-3-yl]-2-(difluoromethoxy)-N-[(1R,2S)-2-fluorocyclopropyl]-6-methoxy-benzamide] | > 500 | > 500 | 10 to 100
10 | COc1cc(-c2cnc3cc(C4CCC4)ccn23)cc(OC(F)F)c1C(=O)NC1CC1 [Cpd 159, 4-(7-cyclobutylimidazo[1,2-a]pyridin-3-yl)-N-cyclopropyl-2-(difluoromethoxy)-6-methoxy-benzamide] | 10 to 100 | 10 to 100 | 0.01 to 10
11 | COc1cc(-c2cnc3cc(C(C)(C)N)ccn23)cc(OC)c1C(=O)NCC(F)(F)F [Cpd 55, 4-[7-(1-amino-1-methyl-ethyl)imidazo[1,2-a]pyridin-3-yl]-2,6-dimethoxy-N-(2,2,2-trifluoroethyl)benzamide] | > 500 | > 500 | 10 to 100
12 | COc1cc(-c2cnc3cc(C(C)(C)C#N)ccn23)cc(OC(F)F)c1C(=O)N1CC(N)C1 [Cpd 103, 2-[3-[4-(3-aminoazetidine-1-carbonyl)-3-(difluoromethoxy)-5-methoxy-phenyl]imidazo[1,2-a]pyridin-7-yl]-2-methyl-propanenitrile] | > 500 | > 500 | 10 to 100
13 | COCCN1CCCC1c1ccn2c(-c3cc(OC)c(C(=O)NC4CC4)c(OC(F)F)c3)cnc2c1 (stereo not drawn) [Cpd 196, N-cyclopropyl-2-(difluoromethoxy)-6-methoxy-4-[7-[1-(2-methoxyethyl)pyrrolidin-2-yl]imidazo[1,2-a]pyridin-3-yl]benzamide] | 10 to 100 | 100 to 500 | 10 to 100
14 | COc1cc(-c2cnc3cc(C(C)(C)C#N)ccn23)cc(OC(F)F)c1C(=O)N1CC(O)(C2CC2)C1 [Cpd 74, 2-[3-[4-(3-cyclopropyl-3-hydroxy-azetidine-1-carbonyl)-3-(difluoromethoxy)-5-methoxy-phenyl]imidazo[1,2-a]pyridin-7-yl]-2-methyl-propanenitrile] | > 500 | > 500 | 10 to 100
15 | COc1cc(-c2cnc3cc(C(C)N4CCO[C@H](CO)C4)ccn23)cc(OC(F)F)c1C(=O)NC1CC1 (stereo partly drawn) [Cpd 157, N-cyclopropyl-2-(difluoromethoxy)-4-[7-[1-[(2S)-2-(hydroxymethyl)morpholin-4-yl]ethyl]imidazo[1,2-a]pyridin-3-yl]-6-methoxy-benzamide] | > 500 | > 500 | 10 to 100
16 | COc1cc(-c2cnc3cc(C4CCCN4C(=O)OC(C)(C)C)ccn23)cc(OC(F)F)c1C(=O)NC1CC1 (stereo not drawn) [Cpd 180, tert-butyl 2-[3-[4-(cyclopropylcarbamoyl)-3-(difluoromethoxy)-5-methoxy-phenyl]imidazo[1,2-a]pyridin-7-yl]pyrrolidine-1-carboxylate] | 100 to 500 | 100 to 500 | 10 to 100
17 | COc1cc(-c2cnc3cc(C4CCNCC4)ccn23)cc(OC(F)F)c1C(=O)NC1CC1 [Cpd 66, N-cyclopropyl-2-(difluoromethoxy)-6-methoxy-4-[7-(4-piperidyl)imidazo[1,2-a]pyridin-3-yl]benzamide] | 10 to 100 | > 500 | 10 to 100
18 | COc1cc(-c2cnn3cc(C(C)(C)c4noc(C)n4)ccc23)cc(OC(F)F)c1C(=O)NC1CC1 [Cpd 247, N-cyclopropyl-2-(difluoromethoxy)-6-methoxy-4-[6-[1-methyl-1-(5-methyl-1,2,4-oxadiazol-3-yl)ethyl]pyrazolo[1,5-a]pyridin-3-yl]benzamide] | > 500 | > 500 | 10 to 100
19 | COc1cc(-c2cnc3cc(C(F)(F)C(=O)O)ccn23)cc(OC(F)F)c1C(=O)NC1CC1 [Cpd 132, 2-[3-[4-(cyclopropylcarbamoyl)-3-(difluoromethoxy)-5-methoxy-phenyl]imidazo[1,2-a]pyridin-7-yl]-2,2-difluoro-acetic acid] | 100 to 500 | 100 to 500 | 0.01 to 10
20 | CCCCOC(=O)NC(C)(C)c1ccc2c(-c3cc(OC)c(C(=O)N[C@@H]4C[C@@H]4F)c(OC(F)F)c3)cnn2c1 [Cpd 264, butyl N-[1-[3-[3-(difluoromethoxy)-4-[[(1R,2S)-2-fluorocyclopropyl]carbamoyl]-5-methoxy-phenyl]pyrazolo[1,5-a]pyridin-6-yl]-1-methyl-ethyl]carbamate] | > 500 | > 500 | 10 to 100
21 | COc1cc(-c2cnc3cc(C(C)(C)C#N)ccn23)cc(OC(F)F)c1C(=O)NC(C)C1CC1 (stereo not drawn) [Cpd 101, 4-[7-(1-cyano-1-methyl-ethyl)imidazo[1,2-a]pyridin-3-yl]-N-(1-cyclopropylethyl)-2-(difluoromethoxy)-6-methoxy-benzamide] | > 500 | > 500 | 100 to 500
22 | COCCCNC(=O)c1c(OC)cc(-c2cnc3cc(C(C)(C)C#N)ccn23)cc1OC(F)F [Cpd 45, 4-[7-(1-cyano-1-methyl-ethyl)imidazo[1,2-a]pyridin-3-yl]-2-(difluoromethoxy)-6-methoxy-N-(3-methoxypropyl)benzamide] | > 500 | > 500 | 100 to 500
23 | COc1cc(-c2cnn3cc(C(C)(C)OCCO)ccc23)cc(OC(F)F)c1C(=O)NC1CC1 [Cpd 239, N-cyclopropyl-2-(difluoromethoxy)-4-[6-[1-(2-hydroxyethoxy)-1-methyl-ethyl]pyrazolo[1,5-a]pyridin-3-yl]-6-methoxy-benzamide] | > 500 | > 500 | 10 to 100
24 | COc1cc(-c2cnc3cc(C(C)(C)C#N)ccn23)cc(OC(F)F)c1C(=O)NCC(C)C [Cpd 72, 4-[7-(1-cyano-1-methyl-ethyl)imidazo[1,2-a]pyridin-3-yl]-2-(difluoromethoxy)-N-isobutyl-6-methoxy-benzamide] | > 500 | > 500 | 10 to 100
